Experimental data as given in ChEMBL document CHEMBL5523701, “Structure-based discovery of small molecule inhibitors of FKBP51-Hsp90 protein-protein interaction” (Eur J Med Chem, 2024).

Assays:
[1] = molecular target: T1, Peptidyl-prolyl cis-trans isomerase FKBP5 (Homo sapiens, UniProt Q13451); assay: Inhibition of GST-tagged human FKBP51 expressed in Escherichia coli BL21 (DE3) using NH2-EDASRMEEVD-COOH peptide as substrate preincubated for 15 mins followed by substrate addition measured after 15 mins by Alpha Screen assay
T1 sequence (Q13451 whole entry): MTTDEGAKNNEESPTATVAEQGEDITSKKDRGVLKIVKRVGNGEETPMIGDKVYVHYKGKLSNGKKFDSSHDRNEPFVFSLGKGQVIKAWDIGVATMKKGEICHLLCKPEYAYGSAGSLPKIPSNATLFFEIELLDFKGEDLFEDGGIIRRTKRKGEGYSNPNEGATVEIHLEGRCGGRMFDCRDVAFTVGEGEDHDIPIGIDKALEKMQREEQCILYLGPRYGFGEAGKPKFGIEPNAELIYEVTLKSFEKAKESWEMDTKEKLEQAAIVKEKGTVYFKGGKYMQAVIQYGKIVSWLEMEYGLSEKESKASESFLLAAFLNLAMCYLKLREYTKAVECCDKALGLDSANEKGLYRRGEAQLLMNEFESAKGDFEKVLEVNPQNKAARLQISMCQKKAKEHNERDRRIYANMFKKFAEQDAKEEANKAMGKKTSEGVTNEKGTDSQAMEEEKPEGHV

[2] = molecular target: T2, Mitochondrial import receptor subunit TOM70 (Homo sapiens, UniProt O94826); assay: Inhibition of GST-tagged human TOM70 expressed in Escherichia coli BL21 (DE3) using NH2-EDASRMEEVD-COOH peptide as substrate preincubated for 15 mins followed by substrate addition measured after 15 mins by Alpha Screen assay
T2 sequence (O94826 whole entry): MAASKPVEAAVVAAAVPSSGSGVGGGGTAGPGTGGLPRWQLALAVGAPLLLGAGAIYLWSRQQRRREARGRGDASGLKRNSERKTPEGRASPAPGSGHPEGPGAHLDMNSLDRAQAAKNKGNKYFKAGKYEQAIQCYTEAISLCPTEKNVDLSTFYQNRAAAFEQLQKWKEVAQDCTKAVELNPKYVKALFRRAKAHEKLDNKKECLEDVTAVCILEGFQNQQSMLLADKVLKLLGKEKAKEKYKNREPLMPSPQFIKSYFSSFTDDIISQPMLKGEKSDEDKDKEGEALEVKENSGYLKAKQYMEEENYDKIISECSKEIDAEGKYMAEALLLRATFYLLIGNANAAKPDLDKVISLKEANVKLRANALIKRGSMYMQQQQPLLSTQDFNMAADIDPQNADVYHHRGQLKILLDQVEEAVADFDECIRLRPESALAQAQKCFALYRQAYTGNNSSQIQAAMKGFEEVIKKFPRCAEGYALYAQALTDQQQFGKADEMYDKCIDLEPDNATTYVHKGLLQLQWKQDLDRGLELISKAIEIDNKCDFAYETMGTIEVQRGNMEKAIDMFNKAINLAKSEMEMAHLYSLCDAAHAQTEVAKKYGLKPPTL

[3] = molecular target: T3, AH receptor-interacting protein (Homo sapiens, UniProt O00170); assay: Inhibition of GST-tagged human AIP expressed in Escherichia coli BL21 (DE3) using NH2-EDASRMEEVD-COOH peptide as substrate preincubated for 15 mins followed by substrate addition measured after 15 mins by Alpha Screen assay
T3 sequence (O00170 whole entry): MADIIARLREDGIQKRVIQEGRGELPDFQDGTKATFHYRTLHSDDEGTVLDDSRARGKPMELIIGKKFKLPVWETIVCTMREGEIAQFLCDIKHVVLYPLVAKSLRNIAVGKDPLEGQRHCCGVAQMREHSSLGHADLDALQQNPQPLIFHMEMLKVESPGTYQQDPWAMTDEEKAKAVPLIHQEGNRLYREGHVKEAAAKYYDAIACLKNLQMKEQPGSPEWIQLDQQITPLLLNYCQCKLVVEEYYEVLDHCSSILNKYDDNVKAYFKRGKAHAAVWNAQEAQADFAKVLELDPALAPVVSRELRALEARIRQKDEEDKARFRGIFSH

[4] = Solubility of compound in cell culture media upto 30 uM; assay type: physicochemical
[5] = molecular target: T4, E3 ubiquitin-protein ligase CHIP (Homo sapiens, UniProt Q9UNE7); assay: Inhibition of GST-tagged human CHIP expressed in Escherichia coli BL21 (DE3) using NH2-EDASRMEEVD-COOH peptide as substrate preincubated for 15 mins followed by substrate addition measured after 15 mins by Alpha Screen assay
T4 sequence (Q9UNE7 whole entry): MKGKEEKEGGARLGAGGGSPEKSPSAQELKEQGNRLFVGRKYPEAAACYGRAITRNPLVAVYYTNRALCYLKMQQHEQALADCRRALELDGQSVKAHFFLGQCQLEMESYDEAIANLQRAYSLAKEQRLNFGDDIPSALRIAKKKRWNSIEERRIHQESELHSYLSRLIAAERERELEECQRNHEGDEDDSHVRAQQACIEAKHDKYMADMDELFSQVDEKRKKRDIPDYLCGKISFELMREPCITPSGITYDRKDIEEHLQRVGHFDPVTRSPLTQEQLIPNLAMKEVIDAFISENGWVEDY

[6] = molecular target: T1, Peptidyl-prolyl cis-trans isomerase FKBP5; assay: Binding affinity to GST-tagged human FKBP51 expressed in Escherichia coli BL21 (DE3) immobilized in CM7 sensor chip assessed as equilibrium dissociation constant by SPR analysis
[7] = molecular target: Peptidyl-prolyl cis-trans isomerase D (Homo sapiens, UniProt Q08752); assay: Inhibition of GST-tagged human CYP40 expressed in Escherichia coli BL21 (DE3) using NH2-EDASRMEEVD-COOH peptide as substrate preincubated for 15 mins followed by substrate addition measured after 15 mins by Alpha Screen assay
[8] = molecular target: T5, Aryl-hydrocarbon-interacting protein-like 1 (Homo sapiens, UniProt Q9NZN9); assay: Inhibition of GST-tagged human AIPL1 expressed in Escherichia coli BL21 (DE3) using NH2-EDASRMEEVD-COOH peptide as substrate preincubated for 15 mins followed by substrate addition measured after 15 mins by Alpha Screen assay
T5 sequence (Q9NZN9 whole entry): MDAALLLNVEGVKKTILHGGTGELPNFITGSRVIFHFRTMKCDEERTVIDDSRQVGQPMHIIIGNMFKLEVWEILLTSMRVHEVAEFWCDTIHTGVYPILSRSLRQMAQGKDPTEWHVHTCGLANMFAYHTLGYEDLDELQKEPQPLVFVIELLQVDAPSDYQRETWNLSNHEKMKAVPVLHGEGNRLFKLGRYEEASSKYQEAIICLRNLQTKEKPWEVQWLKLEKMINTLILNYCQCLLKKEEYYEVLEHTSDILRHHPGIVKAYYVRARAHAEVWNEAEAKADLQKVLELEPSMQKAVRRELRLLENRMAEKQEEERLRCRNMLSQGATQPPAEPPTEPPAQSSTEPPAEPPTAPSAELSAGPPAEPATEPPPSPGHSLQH

Peptidyl-prolyl cis-trans isomerase D, sequence (Q08752 whole entry): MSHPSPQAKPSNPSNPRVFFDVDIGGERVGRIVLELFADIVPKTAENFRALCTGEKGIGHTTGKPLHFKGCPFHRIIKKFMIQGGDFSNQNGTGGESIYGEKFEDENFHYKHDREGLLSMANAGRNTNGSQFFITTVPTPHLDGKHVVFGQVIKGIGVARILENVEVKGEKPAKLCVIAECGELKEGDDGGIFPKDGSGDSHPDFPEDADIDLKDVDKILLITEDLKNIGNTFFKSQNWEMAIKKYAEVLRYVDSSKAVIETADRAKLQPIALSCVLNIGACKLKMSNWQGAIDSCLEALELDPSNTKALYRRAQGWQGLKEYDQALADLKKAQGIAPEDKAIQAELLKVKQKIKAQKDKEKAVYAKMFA

IC50 [1] [nM] | IC50 [2] [nM] | IC50 [3] [nM] | solubility [4] | IC50 [5] [nM] | Kd [6] [nM] | IC50 [7] [nM] | IC50 [8] [nM] | SMILES
1500 | 5000 | 6000 | Soluble | 2500 | 48400 | – | – | COC(=O)c1c(NC(=O)CSc2nnc(-c3ccco3)c(-c3ccco3)n2)sc(C)c1C
– | 1200 | 7000 | – | 2500 | – | 1500 | 2000 | Cc1sc(NC(=O)CCCC(=O)Nc2sc(C)c(C)c2C(N)=O)c(C(N)=O)c1C
